Patent publication US20260199254A1, “COMPOSITIONS AND METHODS OF USE THEREOF FOR INCREASING IMMUNE RESPONSES” (priority 2022, published 2026)

How the values were obtained:
EL4 cells [1] = experiment: Intracellular calcium levels (Fluo-3AM); type: cell-based; settings: same calcium concentration
Description: Changes in intracellular calcium levels were measured using Fluo-3AM as an indicator.

[2] = tested on: B16F10-OVA-tumor-bearing C57BL/6 mice
BMDCs [3] = experiment: BMDC maturation, flow cytometry for MHC-II and CD205; type: cell-based, mouse; settings: 5 or 10 μg/mL, 24 h, no cancer cells
Description: Maturation BMDCs were seeded onto a 6-well plate at a density of 1×10^6 cells per well one day before the experiment. BMDCs were treated with PBS, CaCl2 solution (5 or 10 μg/mL), and AnCHNPs (5 or 10 μg/mL). After incubation for 24 hrs, supernatant was removed, and BMDCs were harvested by cell lifter. BMDCs were subsequently stained with MHCII-FITC (#107616) and CD205-APC (#138206) and analyzed flow cytometry. Also, BMDCs were treated with SiO2-PEG shell (10 μg/mL), harvested after 24 hrs incubation, stained with MHCII-FITC (#107616), CD80-PerCP-Cy5.5 (#560526), CD86-BV605 (#563055), CD40-PE (#12-0401-83), and OVA-APC (#17-5743-82), and analyzed by flow cytometry.

BMDCs [4] = experiment: [Ca2+]int measurement (Fluo-3 AM); type: cell-based, mouse; settings: 5 or 10 μg/mL Ca
Description: Fluo-3 AM kit (Cayman, 14960) was used to measure [Ca2+]int in BMDCs after treatment with AnCHNPs. Briefly, BMDCs were seeded into a 96-well plate at a density of 1×10^4 cells per well and incubated overnight. At different time points (0, 1, 2, 4, 8, and 24 hrs), medium was taken from the well, replenished with prewarmed (37° C.) probe-containing medium (to a final concentration of 5 μM). Cells were incubated for 30 mins under the same growth conditions. Then the loading solution was replaced with fresh medium, removing dye molecules nonspecifically attached to cell surface. Cells were incubated for another 30 mins to allow for complete de-esterification of the acetoxymethyl esters. Fluorescence (ex/em: 485/520 nm) was recorded on a microplate reader (Synergy Mx, BioTeK).

[5] = tested on: BMDCs/B16F10-OVA (pre-irradiated, 100 Gy) co-cultures; experiment: DC activation and antigen-presentation in co-culture (flow cytometry, ELISA); type: cell-based, mouse; settings: comparators
CFSE-labeled BMDCs = experiment: Transwell DC migration assay; type: cell-based, mouse; settings: 5 or 10 μg/mL, 24 h, B16F10-OVA in lower chamber
EL4 cells [6] = settings: dose as equivalent calcium concentration
BMDCs [7] = experiment: Cell uptake of Cy5-labeled nanoparticles by flow cytometry; type: cell-based, mouse; settings: co-incubation with Cy5-labeled AnCHNPs 5 μg/mL
Description: BMDCs were seeded into 6-well plates at a density of 1×10^6 cells per well and incubated overnight. The cells were then treated with Cy-5 labeled PCHNPs and AnCHNPs (5 μg/mL) for 2 hrs. Furthermore, different endocytosis inhibitors Sodium azide (NaN3, 99.5%, Sigma-Aldrich, Lot #S2002), Dynasore (C18H14N2O4, 98%, Sigma-Aldrich, Lot #324410), Nystatin (Sigma-Aldrich, Lot #N4014), Chlorpromazine (C17H19ClN2S·HCl, 98%, Sigma-Aldrich, Lot #C8138) were used. The Fluorescence of Cy-5 taken up by DCs were measured by flow cytometry.

[8] = tested on: C57BL/6 mice bearing B16F10-OVA tumors; experiment: Therapy study, combination with chemotherapy (carboplatin); type: in vivo; settings: carboplatin alone, 40 mg/kg i.p.
Description: Combination with chemotherapy: This was investigated in C57BL/6 mice bearing B16F10-OVA tumors. When tumor sizes reached ~50 mm3, the animals were randomized to receive the following treatments (n=5 for each group): (1) PBS (i.t., 50 μL*2, Day 0 and Day 2); (2) Carboplatin (i.p., 40 mg/kg, 100 μL, Day 0); (3) Carboplatin (i.p., 40 mg/kg, 100 μL, Day 0)+AnCHNPs (i.t., 200 μg/kg*2, 50 μL, Day 0 and Day 2). The tumor size and body weight were inspected daily. The tumor was measured in two dimensions with a caliper and tumor volume was estimated as (length)×(width) 2/2.

EL4 cells [9] = experiment: Cellular uptake of Cy5-labelled nanoparticles in EL4 cells; type: cell-based; settings: EL4, co-incubation

With [Ca+2].[Cl-].[Cl-] [CaCl2, calcium chloride] the intracellular calcium levels (EL4 cells [1]) was “did not increase cellular calcium levels”, the “IFN-γ+ CTL frequency, splenocytes co-incubated with B16F10-OVA cells ex vivo” value ([2]; 6 h co-incubation) was “marginal T cell activation” and the “change of serum cytokine levels (IL-1β, IL-6, TNF-α, IFN-γ, IL-12 elevated, IL-10 decreased)” value ([2]; Day 3 and Day 7, relative to PBS control, comparator) was “not”. For the same compound, the “frequency of Tregs (CD45+CD3+CD4+Foxp3+) in tumors” value ([2]; RT 10 Gy + 200 μg/kg i.t.) was “minimum impact”, the “tumor-infiltration of cytotoxic T cells (CTLs, CD45+CD3+CD8+)” value ([2]; RT 10 Gy + 200 μg/kg i.t., tumor, Day 7) was “minimum impact” and the “CD205 expression in DCs” value (BMDCs [3]) was “no impact”. The “population and expression levels (MFI) of MHC-II+ DCs” value (BMDCs [3]; relative to untreated DCs) was “no impact”, the “[Ca2+]int change” value (BMDCs [4]) was “little [Ca^2+]int increase” and the “impact on DC activation” value [5] was “no positive impact on DC activation”. For the same compound, the “numbers of DCs migrating to the bottom chamber” value (CFSE-labeled BMDCs) was “minimally affected DC migration” and the “Ca2+ concentration at which an effect on cell viability / significant toxicity appears” value (EL4 cells [6]) was no less than 100 µg/mL.

[N-]=[N+]=[N-].[Na+] [azide, Sodium azide] was tested, and the “effect of endocytosis inhibitor on AnCHNPs uptake by DCs” value (BMDCs [7]) was “reduced”.

With N.N.O=C([O-])C1(C(=O)[O-])CCC1.[Pt+2] [carboplatin] the average survival [8] was 15 days, the “time by which all animals died” value [8] was no more than 3 weeks and the tumor growth [8] was “only marginally retarded tumor growth”.

In the case of CN(C)CCCN1c2ccccc2Sc2ccc(Cl)cc21 [chlorpromazine, Chlorpromazine], the “effect of endocytosis inhibitor on AnCHNPs uptake by DCs” value (BMDCs [7]) is reported as “inhibited”.

With O=C(N/N=C/c1ccc(O)c(O)c1)c1cc2ccccc2cc1O [dynasore, Dynasore] the “effect of endocytosis inhibitor on AnCHNPs uptake by DCs” value (BMDCs [7]) was “inhibited” and the “effect of endocytosis inhibitor on uptake of PMA@CCNP-Ab” value (EL4 cells [9]) was “decreased”.

With C[C@@H]1[C@H](O)[C@@H](C)/C=C/C=C/CC/C=C/C=C/C=C/C=C/C(O[C@H]2O[C@H](C)[C@@H](O)[C@H](N)[C@@H]2O)CC2O[C@](O)(CC(O)C(O)CCC(O)CC(O)CC(O)CC(=O)O[C@H]1C)CC(O)C2C(=O)O (some centres unmarked) [nystatin, Nystatin] the “effect of endocytosis inhibitor on AnCHNPs uptake by DCs” value (BMDCs [7]) was “had no effect on the particle uptake” and the “effect of endocytosis inhibitor on uptake of PMA@CCNP-Ab” value (EL4 cells [9]) was “did not inhibit cellular uptake”.
